According to the supplement of paper PMC10307832:

compound: CC(O)(CS(=O)(=O)c1ccc(F)cc1)C(=O)Nc1ccc(C#N)c(C(F)(F)F)c1 [Bicalutamide] + CS(=O)(=O)CCNCc1ccc(-c2ccc3ncnc(Nc4ccc(OCc5cccc(F)c5)c(Cl)c4)c3c2)o1 [Lapatinib] (partner 2 µM); assay: relative viability (nuclei count vs DMSO), 5 days (fraction); higher = more cells survive; settings: first compound 0.08 µM
Summary of the method: (§1)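 Five library-drug doses in √10 steps were combined with a fixed anchor-drug dose, or a single drug was given alone, by pin tool to lung cancer cell lines in 1536-well plates the day after seeding. Nuclei were stained and counted after 5 days. Relative viability is the nuclei count in treated wells over that in vehicle wells, taken as the median of duplicate plates.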

Row | Cell Line | relative viability
1 | Calu-6 | 1.16
2 | HCC-366 | 1.09
3 | NCI-H1666 | 0.733
4 | NCI-H647 | 1.07
5 | LK-2 | 0.901
6 | NCI-H2126 | 0.686
7 | SK-MES-1 | 0.48
8 | H3255 | 0.112
9 | COR-L23 | 0.941
10 | COR-L 105 | 0.333
11 | IA-LM | 0.969
12 | LOU-NH91 | 0.816
13 | NCI-H2170 | 0.286
14 | NCI-H3122 | 0.983
15 | HOP-62 | 1.13
16 | HCC-44 | 1.05
17 | A549 | 1.12
18 | LU99A | 0.958

Row | Cell Line | relative viability
19 | BEN | 0.674
20 | HARA | 0.841
21 | HCC-78 | 0.74
22 | LCLC-97TM1 | 0.857
23 | NCI-H2023 | 0.727
24 | A-427 | 0.945
25 | NCI-H460 | 1.08
26 | NCI-H727 | 0.945
27 | NCI-H1734 | 1.18
28 | NCI-H520 | 0.817
29 | NCI-H2405 | 1.2
30 | SW 1573 | 1.03
31 | NCI-H1395 | 0.858
32 | 201T | 1.07
33 | NCI-H1915 | 0.933
34 | HCC-827 | 0.171
35 | LXF-289 | 0.92
36 | NCI-H2347 | 1.11

same assay, conditions: first compound 0.253 µM

Row | Cell Line | relative viability
37 | Calu-6 | 1.01
38 | HCC-366 | 1.05
39 | NCI-H1666 | 0.652
40 | NCI-H647 | 0.954
41 | LK-2 | 0.852
42 | NCI-H2126 | 0.697
43 | SK-MES-1 | 0.456
44 | H3255 | 0.239
45 | COR-L23 | 0.921
46 | COR-L 105 | 0.353
47 | IA-LM | 0.958
48 | LOU-NH91 | 0.638
49 | NCI-H2170 | 0.271
50 | NCI-H3122 | 0.962
51 | HOP-62 | 0.995
52 | HCC-44 | 0.987
53 | A549 | 0.959
54 | LU99A | 0.847

Row | Cell Line | relative viability
55 | BEN | 0.589
56 | HARA | 0.514
57 | HCC-78 | 0.977
58 | LCLC-97TM1 | 0.971
59 | NCI-H2023 | 0.866
60 | A-427 | 1.08
61 | NCI-H460 | 0.881
62 | NCI-H727 | 0.763
63 | NCI-H1734 | 0.904
64 | NCI-H520 | 0.674
65 | NCI-H2405 | 1.01
66 | SW 1573 | 0.909
67 | NCI-H1395 | 0.956
68 | 201T | 0.95
69 | NCI-H1915 | 0.933
70 | HCC-827 | 0.178
71 | LXF-289 | 0.845
72 | NCI-H2347 | 0.935

same assay, conditions: first compound 0.8 µM

Row | Cell Line | relative viability
73 | Calu-6 | 1.12
74 | HCC-366 | 1.12
75 | NCI-H1666 | 0.815
76 | NCI-H647 | 1.75
77 | LK-2 | 1.11
78 | NCI-H2126 | 0.74
79 | SK-MES-1 | 0.472
80 | H3255 | 0.315
81 | COR-L23 | 1.2
82 | COR-L 105 | 0.39
83 | IA-LM | 1.02
84 | LOU-NH91 | 0.856
85 | NCI-H2170 | 0.268
86 | NCI-H3122 | 1.04
87 | HOP-62 | 1.05
88 | HCC-44 | 1.12
89 | A549 | 1.04
90 | LU99A | 1.28

Row | Cell Line | relative viability
91 | BEN | 0.984
92 | HARA | 0.904
93 | HCC-78 | 0.91
94 | LCLC-97TM1 | 1.1
95 | NCI-H2023 | 1.21
96 | A-427 | 1.19
97 | NCI-H727 | 1.09
98 | NCI-H1734 | 1.25
99 | NCI-H520 | 1.01
100 | NCI-H2405 | 1.16
101 | SW 1573 | 1.3
102 | NCI-H1395 | 1.29
103 | 201T | 1.06
104 | NCI-H1915 | 1.06
105 | HCC-827 | 0.171
106 | LXF-289 | 0.991
107 | NCI-H2347 | 0.989

same assay, conditions: first compound 2.53 µM

Row | Cell Line | relative viability
108 | Calu-6 | 1.08
109 | HCC-366 | 1
110 | NCI-H1666 | 0.662
111 | NCI-H647 | 0.748
112 | LK-2 | 0.898
113 | NCI-H2126 | 0.753
114 | SK-MES-1 | 0.46
115 | H3255 | 0.198
116 | COR-L23 | 0.998
117 | COR-L 105 | 0.311
118 | IA-LM | 0.711
119 | LOU-NH91 | 0.752
120 | NCI-H2170 | 0.24
121 | NCI-H3122 | 1.04
122 | HOP-62 | 1.07
123 | HCC-44 | 1.05
124 | A549 | 0.778
125 | LU99A | 0.798

Row | Cell Line | relative viability
126 | BEN | 0.858
127 | HARA | 0.701
128 | HCC-78 | 0.682
129 | LCLC-97TM1 | 1
130 | NCI-H2023 | 0.648
131 | A-427 | 1.1
132 | NCI-H460 | 0.972
133 | NCI-H727 | 0.77
134 | NCI-H1734 | 0.971
135 | NCI-H520 | 0.779
136 | NCI-H2405 | 0.852
137 | SW 1573 | 1.11
138 | NCI-H1395 | 0.869
139 | 201T | 1.02
140 | NCI-H1915 | 0.882
141 | HCC-827 | 0.193
142 | LXF-289 | 0.877
143 | NCI-H2347 | 0.784

compound: C(C(=O)C(=O)O)Br [Bromopyruvate] + CS(=O)(=O)N1CCN(Cc2cc3nc(-c4cccc5[nH]ncc45)nc(N4CCOCC4)c3s2)CC1 [Pictilisib] (partner 1 µM); assay: as above; settings: first compound 1 µM
Summary of the method: as §1

Row | Cell Line | relative viability
144 | Calu-6 | 0.898
145 | HCC-366 | 0.157
146 | NCI-H1666 | 0.43
147 | NCI-H647 | 0.433
148 | LK-2 | 0.548
149 | NCI-H2126 | 0.531
150 | SK-MES-1 | 0.356
151 | H3255 | 0.479
152 | COR-L23 | 0.763
153 | COR-L 105 | 0.524
154 | IA-LM | 0.336
155 | LOU-NH91 | 0.588
156 | NCI-H2170 | 0.435
157 | NCI-H3122 | 0.553
158 | HOP-62 | 0.71
159 | HCC-44 | 0.697
160 | A549 | 0.479
161 | LU99A | 0.306
